For this test, the target named is T1, PARP1 (Homo sapiens, UniProt P09874).
T1 construct: HeLa cells (wide-type with PARP1 gene) were purchased from ATCC; host or cells: HeLa (wild type)
The test is described as follows: In-Cell Western measurement of PARylation in PARP1 WT and knockout cells. It counts as cell-based. The settings on record: HeLa cells (wide-type with PARP1 gene); hydrogen peroxide-induced PARylation; compounds 30 min, then 10 mM hydrogen peroxide 15 min; read-out: HeLa_WT_IC50. An excerpt: The purpose of this cell-based assay is to measure the potency and selectivity of synthesized PARP inhibitors in suppressing hydrogen peroxide-induced PARylation in cells with and without PARP1 expression. Several cell lines were used in this assay. The human PARP1 knockout HEK-293T cell line (#ab266598) was purchased from Abcam, and its corresponding wide-type control is the human wild-type HEK-293T cell line (#ab255449). The HAP1 isogenic cell lines with and without the PARP1 gene (#HZGHC003943c006) were purchased from Horizon Discovery. HeLa cells (wide-type with PARP1 gene) were purchased from ATCC. Cells were cultured using complete medium containing 10% fetal bovine serum. One day before the assay, cells were seeded in 96-well plates at the density of 20,000 cells per well in 100 uL complete medium. Compounds were dissolved using DMSO and diluted to the working concentrations using complete medium. Cells were pre-treated with compounds for 30 min and then stimulated with 10 mM hydrogen peroxide for 15 min. After stimulation, cells were immediately fixed using ice-cold methanol for 20 min. After fixation, cells were washed using 1×PBST buffer for 3 times, 5 min each time, to eliminate residual methanol. Cells were blocked for 2 h at room temperature in blocking buffer (LI-COR Biosciences, #927-70001). Primary antibody was diluted in diluent buffer (LI-COR Biosciences, #927-75001, 1:200) at 50 uL per well. Cells were incubated with the primary antibody at 4° C. for 18 h. The wells were then washed using 1×PBST for 3 times, 5 min each time. IRDye® 680RD Goat anti-Mouse IgG (H+L) secondary antibody was diluted at 1/2000 using the diluent buffer and added at 100 μL per well. Secondary antibody incubation was for 1 h at room temperature. Cells were then washed using 1×PBST for 3 times, 5 min each time. The signal was detected and analyzed using LI-COR Odyssey DLx Imaging system. Data were collected and further processed using GraphPad Prism for IC50 estimation.

We go through 21 molecules from patent US20250163022A1, “PARP1 INHIBITORS” (Synnovation Therapeutics, Inc., priority 2021, published 2025).

T1 sequence (P09874 whole entry): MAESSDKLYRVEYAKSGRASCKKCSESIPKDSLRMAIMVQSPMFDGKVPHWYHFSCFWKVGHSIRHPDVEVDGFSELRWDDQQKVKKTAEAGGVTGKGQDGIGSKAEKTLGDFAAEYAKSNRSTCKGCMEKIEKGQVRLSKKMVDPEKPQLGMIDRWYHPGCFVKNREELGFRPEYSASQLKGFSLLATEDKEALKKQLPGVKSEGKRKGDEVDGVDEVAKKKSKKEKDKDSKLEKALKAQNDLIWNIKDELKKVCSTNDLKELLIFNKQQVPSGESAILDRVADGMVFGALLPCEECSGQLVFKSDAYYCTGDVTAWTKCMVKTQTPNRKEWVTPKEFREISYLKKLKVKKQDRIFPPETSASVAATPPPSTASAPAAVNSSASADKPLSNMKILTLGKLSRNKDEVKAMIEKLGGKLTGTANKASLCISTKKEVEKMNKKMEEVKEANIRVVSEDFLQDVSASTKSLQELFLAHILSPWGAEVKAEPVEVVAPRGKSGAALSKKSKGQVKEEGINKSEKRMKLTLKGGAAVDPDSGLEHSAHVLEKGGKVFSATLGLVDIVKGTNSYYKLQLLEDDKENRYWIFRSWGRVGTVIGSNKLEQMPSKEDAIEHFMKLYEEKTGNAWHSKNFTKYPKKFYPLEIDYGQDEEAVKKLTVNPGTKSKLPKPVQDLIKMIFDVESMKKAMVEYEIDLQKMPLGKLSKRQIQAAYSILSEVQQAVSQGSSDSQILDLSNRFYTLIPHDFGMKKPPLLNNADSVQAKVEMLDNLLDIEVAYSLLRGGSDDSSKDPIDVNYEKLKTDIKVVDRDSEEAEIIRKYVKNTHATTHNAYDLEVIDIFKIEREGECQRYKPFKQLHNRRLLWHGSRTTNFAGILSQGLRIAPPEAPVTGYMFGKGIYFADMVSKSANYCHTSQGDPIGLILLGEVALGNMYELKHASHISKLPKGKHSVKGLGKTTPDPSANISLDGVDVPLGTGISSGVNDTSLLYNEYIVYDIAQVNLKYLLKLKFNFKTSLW

Consider `CCN1C(=O)Nc2c(F)c(CN3CCN(c4ccc(C(=O)NC5CC5)cc4C)CC3)cc3ncnc1c23` [Compound I-82, N-cyclopropyl-4-(4-((3-ethyl-9-fluoro-2-oxo-2,3-dihydro-1H-pyrimido[4,5,6-de]quinazolin-8-yl)methyl)piperazin-1-yl)-3-methylbenzamide], for which the IC50 was at most 10 nM. Then `CCN1C(=O)Nc2c(F)c(CN3CCN(c4ccc(C(=O)NC)nc4C)CC3)cc3c2c1nc(=O)n3C` [Compound I-51, 5-(4-((3-Ethyl-9-fluoro-6-methyl-2,5-dioxo-2,3,5,6-tetrahydro-1H-pyrimido[4,5,6-de]quinazolin-8-yl)methyl)piperazin-1-yl)-N,6-dimethylpicolinamide], with 10 to 100 nM; and `CNC(=O)c1ccc(N2CCN(Cc3ccc4c(c3)NC(=O)C3(CC3)C4)CC2)cn1` [Compound I-5, N-methyl-5-(4-((2′-oxo-1′,4′-dihydro-2′H-spiro[cyclopropane-1,3′-quinolin]-7′-yl)methyl)piperazin-1-yl)picolinamide], with 10 to 100 nM. For `CNC(=O)c1ccc(N2CCN(Cc3ccc4c(c3)[nH]c(=O)c3ccn(C)c34)CC2)cn1` [Compound I-8, N-methyl-5-(4-((1-methyl-4-oxo-4,5-dihydro-1H-pyrrolo[3,2-c]quinolin-7-yl)methyl)piperazin-1-yl)picolinamide], the IC50 was at most 10 nM.

In the case of `CCN1C(=O)Nc2c(F)c(CN3CCN(c4ccc(C(=O)NC)nc4C)CC3)cc3nc(C)nc1c23` [Compound I-52, 5-(4-((3-Ethyl-9-fluoro-5-methyl-2-oxo-2,3-dihydro-1H-pyrimido[4,5,6-de]quinazolin-8-yl)methyl)piperazin-1-yl)-N,6-dimethylpicolinamide], the IC50 is at most 10 nM. In the case of `CNC(=O)c1ccc(N2CCN(Cc3ncc4c5c(c(=O)[nH]c4c3F)CCC5)CC2)c(F)n1` [Compound I-27, 6-Fluoro-5-(4-((4-fluoro-6-oxo-6,7,8,9-tetrahydro-5H-cyclopenta[c][1,6]naphthyridin-3-yl)methyl)piperazin-1-yl)-N-methylpicolinamide] it was at most 10 nM; in that of `CCn1c(=O)[nH]c2cc(CN3CCN(c4ccc(C(=O)NC)nc4C)CC3)ccc2c1=O` [Compound I-16, 5-(4-((3-ethyl-2,4-dioxo-1,2,3,4-tetrahydroquinazolin-7-yl)methyl)piperazin-1-yl)-N,6-dimethylpicolinamide], at most 10 nM. In the case of `CCN1C(=O)Nc2c(F)c(CN3CCN(c4ccc(C(=O)NC5(CO)CC5)nc4C)CC3)cc3ncnc1c23` [Compound I-59, 5-(4-((3-ethyl-9-fluoro-2-oxo-2,3-dihydro-1H-pyrimido[4,5,6-de]quinazolin-8-yl)methyl)piperazin-1-yl)-N-(1-(hydroxymethyl)cyclopropyl)-6-methylpicolinamide] it was at most 10 nM.

In the case of `CCn1c(=O)[nH]c2cc(CN3CCN(c4ccc(C(=O)NC)nc4)CC3)cnc2c1=O` [Compound I-9, 5-(4-((3-Ethyl-2,4-dioxo-1,2,3,4-tetrahydropyrido[3,2-d]pyrimidin-7-yl)methyl)piperazin-1-yl)-N-methylpicolinamide], the IC50 was in the range of 100 to 500 nM. In the case of `CCN1C(=O)Nc2c(F)c(CN3CCN(c4ccc(C(=O)NOC)nc4C)CC3)cc3ncnc1c23` [Compound I-57, 5-(4-((3-Ethyl-9-fluoro-2-oxo-2,3-dihydro-1H-pyrimido[4,5,6-de]quinazolin-8-yl)methyl)piperazin-1-yl)-N-methoxy-6-methylpicolinamide] it was at most 10 nM; in that of `CCN1C(=O)Nc2c(F)c(CN3CCN(c4ccc(C(=O)NC5(COC)CC5)nc4C)CC3)cc3ncnc1c23` [Compound I-66, 5-(4-((3-ethyl-9-fluoro-2-oxo-2,3-dihydro-1H-pyrimido[4,5,6-de]quinazolin-8-yl)methyl)piperazin-1-yl)-N-(1-(methoxymethyl)cyclopropyl)-6-methylpicolinamide], at most 10 nM; in that of `CCN1C(=O)Nc2c(F)c(CN3CCN(c4ccc(C(=O)NC5(C#N)CC5)nc4C)CC3)cc3ncnc1c23` [Compound I-62, N-(1-cyanocyclopropyl)-5-(4-((3-ethyl-9-fluoro-2-oxo-2,3-dihydro-1H-pyrimido[4,5,6-de]quinazolin-8-yl)methyl)piperazin-1-yl)-6-methylpicolinamide], at most 10 nM. On to `CCn1c(=O)[nH]c2cc(CN3CCN(c4ccc(C(=O)NC)nc4C)CC3)cc(C(F)F)c2c1=O` [Compound I-37, 5-(4-((5-(Difluoromethyl)-3-ethyl-2,4-dioxo-1,2,3,4-tetrahydroquinazolin-7-yl)methyl)piperazin-1-yl)-N,6-dimethylpicolinamide], for which the IC50 is at most 10 nM.

As for `CCN1C(=O)Nc2c(F)c(CN3CCN(c4ccc(C(=O)NC)nc4C)CC3)cc3c2c1nn3C` [Compound I-34, 5-(4-((3-Ethyl-6-fluoro-1-methyl-4-oxo-1,3,4,5-tetrahydropyrazolo[3,4,5-de]quinazolin-7-yl)methyl)piperazin-1-yl)-N,6-dimethylpicolinamide], the IC50 is at most 10 nM. For `CNC(=O)c1ccc(N2CCN(Cc3cnc4c5c(c(=O)[nH]c4c3)CCC5)CC2)c(C)n1` [Compound I-20, N,6-dimethyl-5-(4-((6-oxo-6,7,8,9-tetrahydro-5H-cyclopenta[c][1,5]naphthyridin-3-yl)methyl)piperazin-1-yl)picolinamide], the IC50 was at most 10 nM. For the molecule `CNC(=O)c1ccc(N2CCN(Cc3ncc4c5c(c(=O)[nH]c4c3F)CCC5)CC2)cn1` [Compound I-26, 5-(4-((4-Fluoro-6-oxo-6,7,8,9-tetrahydro-5H-cyclopenta[c][1,6]naphthyridin-3-yl)methyl)piperazin-1-yl)-N-methylpicolinamide], the IC50 is at most 10 nM.

For `CCc1c2c3c(cc(CN4CCN(c5ccc(C(=O)NC)nc5)CC4)cc3[nH]c1=O)OCC2` [Compound I-14, 5-(4-((4-Ethyl-5-oxo-2,3,5,6-tetrahydropyrano[4,3,2-de]quinolin-8-yl)methyl)piperazin-1-yl)-N-methylpicolinamide], the IC50 is at most 10 nM.

For the molecule `CCN1C(=O)Nc2c(F)c(CN3CCN(c4ccc(C(=O)NC5(CC#N)CC5)cc4F)CC3)cc3ncnc1c23` [Compound I-94, N-(1-(cyanomethyl)cyclopropyl)-4-(4-((3-ethyl-9-fluoro-2-oxo-2,3-dihydro-1H-pyrimido[4,5,6-de]quinazolin-8-yl)methyl)piperazin-1-yl)-3-fluorobenzamide], the IC50 is at most 10 nM. In the case of `CNC(=O)c1ccc(N2CCN(Cc3ccc4c5c(c(=O)[nH]c4c3)CCC5)CC2)cn1` [Compound I-4, N-methyl-5-(4-((4-oxo-2,3,4,5-tetrahydro-1H-cyclopenta[c]quinolin-7-yl)methyl)piperazin-1-yl)picolinamide] it was at most 10 nM; in that of `CCN1C(=O)Nc2c(F)c(CN3CCN(c4ccc(C(=O)N[C@H]5CCN(C)C5)nc4C)CC3)cc3ncnc1c23` [Compound I-78, (S)-5-(4-((3-ethyl-9-fluoro-2-oxo-2,3-dihydro-1H-pyrimido[4,5,6-de]quinazolin-8-yl)methyl)piperazin-1-yl)-6-methyl-N-(1-methylpyrrolidin-3-yl)picolinamide], at most 10 nM; in that of `CCN1C(=O)Nc2c(F)c(CN3CCN(c4ccc(C(=O)NC5CC5)nc4C)CC3)cc3ncnc1c23` [Compound I-55, N-cyclopropyl-5-(4-((3-ethyl-9-fluoro-2-oxo-2,3-dihydro-1H-pyrimido[4,5,6-de]quinazolin-8-yl)methyl)piperazin-1-yl)-6-methylpicolinamide], at most 10 nM.
